For one compound, IC50 results are on record in ChEMBL document CHEMBL1128818, “Synthesis and antiplatelet activity of DMP 757 analogs” (Bioorg Med Chem Lett, 1995).

The target in this experiment is Integrin alpha-IIb/beta-3 (Homo sapiens, UniProt P05106+P08514). Nature of the experiment: Inhibition of platelet aggregation in vitro using fibrinogen binding assay.
Sequence of Integrin alpha-IIb/beta-3 (P05106 27-788 limits assumed): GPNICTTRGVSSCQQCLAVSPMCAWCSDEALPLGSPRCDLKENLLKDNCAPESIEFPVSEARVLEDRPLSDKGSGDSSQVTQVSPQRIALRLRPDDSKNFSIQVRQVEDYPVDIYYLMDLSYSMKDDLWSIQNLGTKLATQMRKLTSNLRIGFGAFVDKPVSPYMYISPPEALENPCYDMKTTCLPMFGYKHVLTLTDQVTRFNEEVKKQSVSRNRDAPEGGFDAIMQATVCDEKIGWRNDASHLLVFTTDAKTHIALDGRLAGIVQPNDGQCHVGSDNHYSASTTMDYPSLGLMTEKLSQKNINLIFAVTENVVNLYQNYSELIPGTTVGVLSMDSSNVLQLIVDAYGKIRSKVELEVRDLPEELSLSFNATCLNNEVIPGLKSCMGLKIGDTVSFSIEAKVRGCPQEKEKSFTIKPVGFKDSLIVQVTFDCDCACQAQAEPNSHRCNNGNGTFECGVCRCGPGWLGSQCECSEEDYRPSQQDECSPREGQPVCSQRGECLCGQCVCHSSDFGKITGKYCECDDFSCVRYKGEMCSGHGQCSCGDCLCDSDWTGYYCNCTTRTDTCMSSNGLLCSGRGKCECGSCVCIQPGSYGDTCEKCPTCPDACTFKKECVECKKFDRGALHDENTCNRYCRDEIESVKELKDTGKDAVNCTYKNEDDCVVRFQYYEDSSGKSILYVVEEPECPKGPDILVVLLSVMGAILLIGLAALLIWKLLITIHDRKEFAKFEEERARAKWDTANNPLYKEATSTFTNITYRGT
Sequence of Integrin alpha-IIb/beta-3 (P08514 32-887 limits assumed): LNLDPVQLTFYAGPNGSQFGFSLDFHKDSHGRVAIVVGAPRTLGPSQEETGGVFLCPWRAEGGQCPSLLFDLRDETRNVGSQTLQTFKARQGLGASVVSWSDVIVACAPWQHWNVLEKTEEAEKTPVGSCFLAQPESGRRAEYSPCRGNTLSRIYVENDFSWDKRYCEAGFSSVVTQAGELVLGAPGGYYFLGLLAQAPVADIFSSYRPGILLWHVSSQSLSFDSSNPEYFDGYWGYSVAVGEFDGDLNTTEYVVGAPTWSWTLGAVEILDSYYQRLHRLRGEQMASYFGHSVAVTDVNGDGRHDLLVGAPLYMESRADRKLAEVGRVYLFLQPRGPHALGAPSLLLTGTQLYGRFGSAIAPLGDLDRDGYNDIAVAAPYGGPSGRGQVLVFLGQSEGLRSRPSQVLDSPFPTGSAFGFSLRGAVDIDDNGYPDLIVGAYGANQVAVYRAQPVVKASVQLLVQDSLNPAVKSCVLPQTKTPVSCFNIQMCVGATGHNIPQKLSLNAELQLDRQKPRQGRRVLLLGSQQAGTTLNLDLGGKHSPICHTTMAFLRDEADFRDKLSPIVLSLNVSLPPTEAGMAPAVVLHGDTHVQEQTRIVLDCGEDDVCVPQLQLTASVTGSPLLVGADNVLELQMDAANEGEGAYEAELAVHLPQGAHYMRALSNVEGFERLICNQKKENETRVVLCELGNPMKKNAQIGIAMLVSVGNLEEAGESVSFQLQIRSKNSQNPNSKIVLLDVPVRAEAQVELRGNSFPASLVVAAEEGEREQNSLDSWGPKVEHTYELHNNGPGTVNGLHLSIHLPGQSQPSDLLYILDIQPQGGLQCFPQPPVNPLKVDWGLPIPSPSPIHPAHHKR
Sequence of Integrin alpha-IIb/beta-3 (P08514 891-1039 limits assumed): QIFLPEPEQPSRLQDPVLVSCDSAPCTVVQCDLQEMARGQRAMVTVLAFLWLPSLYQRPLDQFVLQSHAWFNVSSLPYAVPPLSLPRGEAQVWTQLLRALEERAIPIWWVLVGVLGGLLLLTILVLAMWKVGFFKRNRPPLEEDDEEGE

What is called IC50 is the concentration that gives 50% inhibition. High values mean weaker potency, low ones greater potency. `CC(C)[C@H]1NC(=O)c2cccc(c2F)CNC(=O)[C@H](CC(=O)O)NC(=O)CNC(=O)[C@H](CCCN=C(N)N)N(C)C1=O` came in with an IC50 of 4 nM.
